Results as given in ChEMBL document CHEMBL1129725, “Synthesis and antitumor activity of 7-substituted 20(RS)-camptothecin analogues” (Bioorg Med Chem Lett, 1996).

Tests used:
Type in all cases: functional, cell-based
Caov-3 cell line = test: Cytotoxicity against CAOV-3 human tumor cell lines
[1] = test system: KATO III stomach cancer cell line; test: Cytotoxicity against KATO-III human tumor cell lines
A 172 = test: Cytotoxicity against A-172 human tumor cell lines
DLD-1 = test: Cytotoxicity against DLD-1 human tumor cell lines
L1210 = test: Cytotoxicity against L1210 tumor cell lines in mice; conditions: Mus musculus

Row | SMILES | IC50 (Caov-3 cell line) [nM] | IC50 [1] [nM] | IC50 (A 172) [nM] | IC50 (DLD-1) [nM] | IC50 (L1210) [nM]
1 | CCC1(O)C(=O)OCc2c1cc1n(c2=O)Cc2c-1nc1ccccc1c2CCN(CCO)C(=O)OCc1ccccc1 (stereo not given) | 1140 | 13800 | 1920 | 9720 | 2900
2 | CCC1(O)C(=O)OCc2c1cc1n(c2=O)Cc2c-1nc1ccccc1c2CCN(CCOC(C)=O)C(=O)OCc1ccccc1 (stereo not given) | 4480 | 16600 | 18600 | 15800 | 9080
3 | CCC1(O)C(=O)OCc2c1cc1n(c2=O)Cc2c-1nc1ccccc1c2CCN1CCCCC1 (stereo not given) | > 100000 | > 100000 | 51100 | > 100000 | > 100000
4 | CCCN(CCc1c2c(nc3ccccc13)-c1cc3c(c(=O)n1C2)COC(=O)C3(O)CC)C(=O)OCc1ccccc1 (stereo not given) | 140 | 510 | 2330 | 550 | 1090
5 | CCNCCc1c2c(nc3ccccc13)-c1cc3c(c(=O)n1C2)COC(=O)C3(O)CC (stereo not given) | 200 | 360 | 85 | 440 | 640
6 | CCC1(O)C(=O)OCc2c1cc1n(c2=O)Cc2c-1nc1ccccc1c2CCN1CCOCC1 (stereo not given) | 42200 | 82000 | 81800 | > 100000 | > 100000
7 | CCC1(O)C(=O)OCc2c1cc1n(c2=O)Cc2c-1nc1ccccc1c2CCNCc1ccccc1 (stereo not given) | 170 | 850 | 280 | 310 | 4030
8 | CCC1(O)C(=O)OCc2c1cc1n(c2=O)Cc2c-1nc1ccccc1c2CCNCCO (stereo not given) | 4630 | 47800 | 23300 | 8790 | 13000
9 | CCC1(O)C(=O)OCc2c1cc1n(c2=O)Cc2c-1nc1ccccc1c2CCN(C(=O)OCc1ccccc1)C(C)C (stereo not given) | 41 | 1850 | 950 | 1830 | 1290
10 | CCC1(O)C(=O)OCc2c1cc1n(c2=O)Cc2c-1nc1ccccc1c2CCNCCOC(C)=O (stereo not given) | 880 | 820 | 740 | 3480 | 4360
11 | CCN(CCc1c2c(nc3cc4c(cc13)OCO4)-c1cc3c(c(=O)n1C2)COC(=O)C3(O)CC)C(=O)OCc1ccccc1 (stereo not given) | 1740 | 23100 | 2830 | 24200 | 3520
12 | CCC1(O)C(=O)OCc2c1cc1n(c2=O)Cc2c-1nc1ccccc1c2CCN1CCCC1 (stereo not given) | > 100000 | > 100000 | > 100000 | > 100000 | > 100000
13 | CCC1(O)C(=O)OCc2c1cc1n(c2=O)Cc2c-1nc1ccccc1c2CCN(Cc1ccccc1)C(=O)OCc1ccccc1 (stereo not given) | 1970 | 14000 | 1180 | 1060 | 700
14 | CCC1(O)C(=O)OCc2c1cc1n(c2=O)Cc2c-1nc1ccccc1c2CCNC(C)C (stereo not given) | 41 | 40 | 110 | 110 | 130
15 | CC[C@@]1(O)C(=O)OCc2c1cc1n(c2=O)Cc2cc3ccccc3nc2-1 [CAMPTOTHECIN] | 30 | 1170 | 140 | 210 | 180
